Measurements: patent publication US8143245B2 (Pierre Fabre Medicament, priority 2006, dated 2012)
Marks after values point to notes of the source that are not given here.

Key:
[1] = target: T1, human M1 muscarinic receptor (Homo sapiens, UniProt P11229); assay: V0162 receptor binding in vitro, CHO cells transfected with human M1, tritiated pirenzepine; conditions: M1(h)
T1 sequence (P11229 1-460): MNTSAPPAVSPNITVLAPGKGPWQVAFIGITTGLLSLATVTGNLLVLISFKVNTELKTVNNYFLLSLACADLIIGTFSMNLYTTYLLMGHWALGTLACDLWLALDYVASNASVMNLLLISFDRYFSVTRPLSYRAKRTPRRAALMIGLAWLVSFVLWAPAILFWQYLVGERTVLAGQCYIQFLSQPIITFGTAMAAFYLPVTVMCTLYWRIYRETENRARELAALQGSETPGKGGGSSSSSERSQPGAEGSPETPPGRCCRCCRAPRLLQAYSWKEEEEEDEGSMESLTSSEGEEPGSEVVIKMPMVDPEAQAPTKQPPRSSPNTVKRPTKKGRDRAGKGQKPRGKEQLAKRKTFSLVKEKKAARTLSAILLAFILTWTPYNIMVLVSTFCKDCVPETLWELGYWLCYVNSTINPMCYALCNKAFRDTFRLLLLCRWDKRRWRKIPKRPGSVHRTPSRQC
From the text: (§1) The purpose of this study is to determine an affinity constant for the compound with respect to the three classes of human muscarinic receptors in vitro. The model chosen is the CHO cell stably transfected with cDNAs coding for each of the three human muscarinic receptors. […] Binding with respect to the receptors is defined as follows: the difference between overall binding and non-specific binding determined in the presence of excess cold ligand. The results are expressed as a percentage of the optimal binding obtained with the model ligand (100%). […] The inhibition constants (Ki) were calculated by means of the Cheng Prusoff equation (Ki=IC50/(1+L/KD)); where L is the radioligand concentration and KD the affinity of the radioligand for the receptor.

[2] = target: T2, human M3 muscarinic receptor (Homo sapiens, UniProt P20309); assay: V0162 receptor binding in vitro, CHO cells transfected with human M3, 4-DAMP; conditions: M3 (h)
T2 construct: expressed in transfected cells; host or cells: CHO cells, stably transfected
T2 sequence (P20309 whole entry): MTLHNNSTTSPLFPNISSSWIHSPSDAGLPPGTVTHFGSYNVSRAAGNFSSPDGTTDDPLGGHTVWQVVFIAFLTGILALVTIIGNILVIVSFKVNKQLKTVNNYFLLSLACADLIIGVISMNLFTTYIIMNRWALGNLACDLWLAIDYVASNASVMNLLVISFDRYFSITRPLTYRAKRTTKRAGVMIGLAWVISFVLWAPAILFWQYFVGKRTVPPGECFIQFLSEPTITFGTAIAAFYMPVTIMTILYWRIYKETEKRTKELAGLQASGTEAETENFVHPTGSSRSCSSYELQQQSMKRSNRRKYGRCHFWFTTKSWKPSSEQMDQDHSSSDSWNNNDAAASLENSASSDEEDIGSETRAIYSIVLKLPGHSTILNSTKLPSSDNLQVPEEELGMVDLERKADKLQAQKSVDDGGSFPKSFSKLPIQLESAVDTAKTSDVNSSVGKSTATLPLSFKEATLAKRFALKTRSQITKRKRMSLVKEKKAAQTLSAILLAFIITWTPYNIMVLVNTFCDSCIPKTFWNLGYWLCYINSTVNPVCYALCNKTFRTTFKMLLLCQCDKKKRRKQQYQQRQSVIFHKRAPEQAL
From the text: as §1

[3] = system: pilocarpine-induced sialorrhea in the rat; assay: Pilocarpine-induced sialorrhea, inhibition of salivary secretion after p.o. administration; format: in vivo
Method: For the purpose of evaluating anticholinergic activity in the validated model of pilocarpine-induced sialorrhea in the rat, groups of animals were fasted and the next day the products were administered orally 90 minutes before intra-peritoneal injection of pilocarpine (0.5 mg.kg^-1). The compounds tested were administered in doses of 2.5, 5 and 10 mg.kg^-1. […] The animals were anaesthetized and then the salivary secretion was collected for 60 minutes, every ten minutes. The samples were then dried and weighed.

[4] = Anticholinergic activity in vivo by intravenous administration
[5] = system: explants taken from the guinea pig (contractions induced by acetylcholine); assay: Anticholinergic effect ex vivo, contractions induced by acetylcholine in explants; conditions: for Response to Acetylcholine Max. Response (%): test curve, mean ± sem, n = 6
Method: The purpose of these experiments was to confirm the anticholinergic activity of […] on a living organ. In order to do so, explants taken from the guinea pig were kept alive. The morphology of the preparations was homogeneous from batch to batch. Each explant was placed in a survival chamber and immersed in a physiological solution of composition (mM): NaCl (118); KCl (4.7); […] CaCl2 (2.5); […] NaHCO3 (25); glucose (11), at a temperature of 37° C. and with a pH of 7.4. Before the test, the following agents were dispersed in the survival buffer in order to block non-specific responses to acetylcholine: […] (10^-6 M) to block β2-adrenergic responses; cimetidine (10^-5 M) to block type 2 histaminergic responses; methysergide (10^-6 M) to block serotoninergic responses and indomethacine (3×10^-6 M) to prevent the appearance of muscle tonus due to a release of prostaglandins by the preparation itself. At the time of acquisition, the tissues were connected to […] in order to continuously record the variations in tension. After 60 minutes of calibration of the preparations, the tissues were exposed to variable concentrations of […]. The contractions induced by acetylcholine as dose responses were carried out in order to determine the response of the preparation to the stimulation in the absence of the putative inhibitor.

[6] = Transmucosal passage: repeated nasal administration of V0162 suspension, circulating level and tolerance; format: in vivo, rabbit; conditions: for Level of V0162: rabbit plasma, nasal 0.4% suspension twice per day
Method: 48 rabbits were treated nasally daily for 28 days with a suspension titrated at 0.4% mass/volume. […] Each group was made up of males and females equally. Nasal administration of the suspension was carried out twice per day for 28 days. Plasma samples were taken on D1, D2, D7, D28, D35. The samples were analyzed by an LC/MS/MS method validated by assay of V0162.

[7] = system: increase in intravesical pressure induced by bethanechol; assay: Intravesical pressure (cystomanometry) after bethanechol; format: in vivo; conditions: compared to oxybutyrine
Method: The objective of this study was to measure intravesical pressure and salivation, in the animal, for the purpose of testing the uroselectivity of the anti-muscarinics, when they are administered orally and vaginally. In order to evaluate intravesical pressure, the bladders of the animals were catheterized in order to make possible recording (cystomanometry: continuous recording of the vesical pressure). The products to be tested were administered either per os at a dose of 5 mg.Kg^-1 or by local application of a suspension of […] at 0.4% in a vehicle with a base of cyclodextrin and arginine. The jugular vein was also cannulated in order to administer a muscarinic agonist: bethanechol (200 μg/kg, iv). At each administration of bethanechol, the variation of vesical pressure (ΔPV, mmHg) and the quantity of saliva (mg) were evaluated and quantified. The positive control was made up of a group of animals treated with oxybutyrine (Ditropan®; 10, 100 and 1000 μg/kg, iv).

[8] = system: M3 muscarinic receptors versus M2 muscarinic receptors; conditions: cited from earlier work
salivation = conditions: preclinical animal studies; cited from earlier work
[9] = p.o. 5 mg·kg^−1, comparison of racemic mixture and enantiomers (Table 4)
[10] = p.o. 2.5 mg·kg^−1, 90 min before pilocarpine
[11] = p.o. 10 mg·kg^−1, 90 min before pilocarpine

c1ccc2c(c1)Sc1ccccc1N2CC1CN2CCC1CC2 (racemic) [10-[(3R,3S)-1-azabicyclo[2.2.2]oct-3-ylmethyl]-10H-phenothiazine, reference compound]
nH (Hill coefficient) [1]: 0.8
nH (Hill coefficient) [2]: 1.2
Inhibition (%) [3, 9]: 73* %

c1ccc2c(c1)Sc1ccccc1N2C[C@@H]1CN2CCC1CC2 [10-[(3S)-1-azabicyclo[2.2.2]oct-3-ylmethyl]-10H-phenothiazine, reference compound]
nH (Hill coefficient) [1]: 1.1
nH (Hill coefficient) [2]: 1.0
Inhibition (%) [3, 9]: −4%
Anticholinergic activity in vivo [4]: does not demonstrate clear activity

CN1[C@@H]2CC[C@H]1C[C@@H](OC(=O)C(CO)c1ccccc1)C2 (some centres unmarked) [Atropine, reference compound]
Inhibition (%) ([3]; 1 mg·kg^−1, positive control): 98* %

c1ccc2c(c1)Sc1ccccc1N2C[C@H]1CN2CCC1CC2 [V0162, 10-[(3R)-1-azabicyclo[2.2.2]oct-3-ylmethyl]-10H-phenothiazine]
Response to Acetylcholine Max. Response (%) ([5]; V0162 30 nM): 98 ± 1%
Response to Acetylcholine Max. Response (%) ([5]; V0162 100 nM): 98 ± 1%
Response to Acetylcholine Max. Response (%) ([5]; V0162 300 nM): 98 ± 1%
Mode of action towards acetylcholine ([5]; ex vivo model): behaves like an antagonistic competitor of acetylcholine
Inhibition (%) [3, 10]: 29%
Secretion [3, 10]: 735.6 mg
Secretion ([3]; p.o. 5 mg·kg^−1, 90 min before pilocarpine): 338.9 mg
Inhibition (%) ([3]; p.o. 5 mg·kg^−1, 90 min before pilocarpine (Table 3)): 67* %
Inhibition (%) [3, 9]: 77* %
Inhibition (%) [3, 11]: 95* %
Secretion [3, 11]: 45.1 mg
Level of V0162 ([6]; Day 1/4 hours after administration): 0.88 ng/mL
Level of V0162 ([6]; Day 1/before administration): BLQ
Level of V0162 ([6]; Day 2/before administration): 0.22 ng/mL
Level of V0162 ([6]; Day 7/before administration): 0.41 ng/mL
Level of V0162 ([6]; Day 28/4 hours after administration): 1.35 ng/mL
Level of V0162 ([6]; Day 28/24 hours after administration): 0.23 ng/mL
Level of V0162 ([6]; Day 35/before administration): BLQ
Toxic effects (histological plane, respiratory rhythm, heart rate, behaviour) ([6]; rabbit, in vivo): do not lead to toxic effects
Effects on the nasal mucosa ([6]; rabbit, nasal 0.4% suspension twice per day for 28 days): does not induce deleterious effects on the nasal mucosa
Circulating level ([6]; rabbit, nasal administration of a suspension): ~4 nM
Increase in intravesical pressure induced by bethanecol ([7]; local application of 0.4% suspension, bethanechol 200 μg/kg iv): significantly reduces the increase in intravesical pressure
Increase in intravesical pressure induced by bethanecol ([7]; per os 5 mg.Kg^−1, bethanechol 200 μg/kg iv): significantly reduces the increase in intravesical pressure
Anticholinergic activity in vivo [4]: anticholinergic by intravenous administration

NC(=O)C(c1ccccc1)(c1ccccc1)[C@@H]1CCN(CCc2ccc3c(c2)CCO3)C1 [darifenacine]
Affinity for M3 muscarinic receptors higher than for M2 muscarinic receptors [8]: 7 times
Selectivity between M3 and M2 receptor [8]: more selective with respect to the M3 receptor than with respect to the M2
Effect on salivation (salivation): reduce salivation

CCN(CC)CC#CCOC(=O)C(O)(c1ccccc1)C1CCCCC1 (centres unmarked) [oxybutynine]
Effect on salivation (salivation): reduce salivation

Cc1ccc(O)c([C@H](CCN(C(C)C)C(C)C)c2ccccc2)c1 [tolterodine]
Selectivity between M3 and M2 receptor [8]: more specific for the M2 receptor than for the M3 receptor
Effect on salivation (salivation): reduces salivation less
